EC50 data for 17 molecules are collected here from patent publication US20230295096A1, “PYRAZOLE CARBOXAMIDE COMPOUNDS FOR TREATMENT OF HBV” (ASSEMBLY BIOSCIENCES, INC., priority 2020, published 2023).

Molecules are shown by their SMILES. Read-outs that look alike come from different tables or passages of the source. Bounds are passed on as bounds.

In the experiment the test system is HBV. In words: Viral load production from HepAD38 cells, qPCR of the HBV core sequence in supernatant. The format is cell-based. Conditions: Hepatitis B virus, HePAD38, 120 h, HepAD38 cells, 5 days, HBV DNA in supernatant by qPCR. The procedure, abridged:
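EC50 and CC50 come from four-parameter logistic fits of supernatant HBV core DNA (TaqMan qPCR, DNA standards, compared with DMSO wells) and of CellTiter-Glo luminescence.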
(In general: Quantitative PCR measures a nucleic acid by following its amplification.)

[1] abbreviates: Table 2 ranges, read-out: VL HepAD38 EC50 range.
Where [2] appears, read: Table 1 ranges, read-out: Activity (viral load lowering EC50).

Take `Cn1nc(C2CC3CC3C2)c(C(=O)Nc2ccc(F)c(Cl)c2)c1N` (centres unmarked) [Example 139, 5-Amino-3-(bicyclo[3.1.0]hexan-3-yl)-N-(3-chloro-4-fluorophenyl)-1-methyl-1H-pyrazole-4-carboxamide]: the half-maximal effective concentration (EC50) under setting [1] is less than 100 nM.

Turning to `Cn1nc(C2CC3CC(=O)C(c4ccccc4)C3C2)c(C(=O)Nc2ccc(F)c(Cl)c2)c1N` (centres unmarked) [Example 140, 5-Amino-N-(3-chloro-4-fluorophenyl)-1-methyl-3-(5-oxo-4-phenyloctahydropentalen-2-yl)-1H-pyrazole-4-carboxamide], under setting [1], the EC50 was less than 100 nM.

On to `Cn1cc(C2(O)CC3CC(c4nn(C)c(N)c4C(=O)Nc4ccc(F)c(Cl)c4)CC3C2)cn1` (centres unmarked) [Example 146], for which the concentration giving a half-maximal response (EC50) under setting [2] was less than 10 nM.

Turning to `Cn1nc(C2CC3CC(O)(c4ncc[nH]4)CC3C2)c(C(=O)Nc2ccc(F)c(Cl)c2)c1N` (centres unmarked) [Example 147], the EC50 under setting [2] was 10 to 50 nM.

`Cn1nc(C2CC3CC(O)(c4ncc(C(F)(F)F)s4)CC3C2)c(C(=O)Nc2ccc(F)c(Cl)c2)c1N` (centres unmarked) [Example 148]: under setting [2], the EC50 fell in the range of 10 to 50 nM.

Consider `Cn1nc(C2CC3CC(O)(c4nc(C(F)(F)F)cs4)CC3C2)c(C(=O)Nc2ccc(F)c(Cl)c2)c1N` (centres unmarked) [Example 149], for which the EC50 under setting [2] was 10 to 50 nM.

For the molecule `Cn1cc(Br)c(C2(O)CC3CC(c4nn(C)c(N)c4C(=O)Nc4ccc(F)c(Cl)c4)CC3C2)n1` (centres unmarked) [Example 150], the EC50 under setting [2] is less than 10 nM.

`Cn1nc(C2CC3CC(O)(c4sc(C(F)(F)F)nc4Br)CC3C2)c(C(=O)Nc2ccc(F)c(Cl)c2)c1N` (centres unmarked) [Example 151]: the EC50 under setting [2] fell in the range of 50 to 500 nM.

Turning to `Cn1nc(C2CC3CC(O)(c4nc5cc(F)c(F)cc5n4C)CC3C2)c(C(=O)Nc2ccc(F)c(Cl)c2)c1N` (centres unmarked) [Example 152], under setting [2], the half-maximal effective concentration (EC50) is 10 to 50 nM.

Consider `Cn1ccc(C2(O)CC3CC(c4nn(C)c(N)c4C(=O)Nc4ccc(F)c(Cl)c4)CC3C2)n1` (centres unmarked) [Example 153], for which the EC50 under setting [2] is less than 10 nM.

For the molecule `Cc1cc(C2(O)CC3CC(c4nn(C)c(N)c4C(=O)Nc4ccc(F)c(Cl)c4)CC3C2)c(F)cn1` (centres unmarked) [Example 154], under setting [2], the EC50 was less than 10 nM.

Regarding `Cn1nc(N)cc1C1(O)CC2CC(c3nn(C)c(N)c3C(=O)Nc3ccc(F)c(Cl)c3)CC2C1` [Example 155, 5-amino-3-((2 s,3aR,5r,6aS)-5-(3-amino-1-methyl-1H-pyrazol-5-yl)-5-hydroxyoctahydropentalen-2-yl)-N-(3-chloro-4-fluorophenyl)-1-methyl-1H-pyrazole-4-carboxamide], the EC50 under setting [2] is less than 10 nM.

On to `Cn1nc(C2CC3CC(O)(c4c[nH]nc4C(F)(F)F)CC3C2)c(C(=O)Nc2ccc(F)c(Cl)c2)c1N` (centres unmarked) [Example 156, 5-amino-N-(3-chloro-4-fluorophenyl)-3-(5-hydroxy-5-(3-(trifluoromethyl)-1H-pyrazol-4-yl)octahydropentalen-2-yl)-1-methyl-1H-pyrazole-4-carboxamide], for which the EC50 under setting [2] was less than 10 nM.

In the case of `Cn1nc(C2CC3CC(O)(c4cn(COP(=O)(O)O)nc4C(F)(F)F)CC3C2)c(C(=O)Nc2ccc(F)c(Cl)c2)c1N` (centres unmarked) [Example 157, sodium sodium (4-(5-(5-amino-4-((3-chloro-4-fluorophenyl)carbamoyl)-1-methyl-1H-pyrazol-3-yl)-2-hydroxyoctahydropentalen-2-yl)-3-(trifluoromethyl)-1H-pyrazol-1-yl)methyl phosphate], the EC50 under setting [2] was less than 10 nM.

For `COCCOCCOCCOCCOCCOCCOCCOCCOC(=O)OCn1cc(C2(O)CC3CC(c4nn(C)c(N)c4C(=O)Nc4ccc(F)c(Cl)c4)CC3C2)c(C(F)(F)F)n1` [Example 158, (4-((2r,3aR,5 s,6aS)-5-(5-amino-4-((3-chloro-4-fluorophenyl)carbamoyl)-1-methyl-1H-pyrazol-3-yl)-2-hydroxyoctahydropentalen-2-yl)-3-(trifluoromethyl)-1H-pyrazol-1-yl)methyl (2,5,8,11,14,17,20,23-octaoxapentacosan-25-yl) carbonate], under setting [2], the EC50 was less than 10 nM.

On to `Cn1nc(C(F)(F)F)cc1C1(O)CC2CC(c3nn(C)c(N)c3C(=O)Nc3ccc(F)c(Cl)c3)CC2C1` (centres unmarked) [Example 159], for which the EC50 under setting [2] fell in the range of 10 to 50 nM.

For the molecule `Cn1nc(C2CC3CC(O)(Cc4nccs4)CC3C2)c(C(=O)Nc2ccc(F)c(Cl)c2)c1N` (centres unmarked) [Example 160], the EC50 under setting [2] was less than 10 nM.

Broadly, the EC50 is the concentration giving half of the maximal effect.
